We go through 26 compounds from ChEMBL document CHEMBL1136874, “Novel carbazole and acyl-indole antimitotics” (Bioorg Med Chem Lett, 2009).

Experiment [1] is described as follows: Cell cycle arrest in human leukemic cells assessed as mitotic block by cytometry. It is filed as functional, cell-based. As to conditions: Leukemia cell.
The next experiment has as its system MCF7. Description: Cytotoxicity against human MCF7 cells. Type of experiment: functional.
For the next experiment, the system named is SW-620. Description: Cytotoxicity against human SW620 cells. Type of experiment: functional.
A further experiment relates to PC-3. Description: Cytotoxicity against human PC3 cells. It is filed as functional.
The next experiment relates to K562. In words: Cytotoxicity against human K562 cells. Type of experiment: functional.
For a further experiment, the system named is HT-29. Description: Cytotoxicity against human HT-29 cells. It is filed as functional.
The nature of experiment [2]: Inhibition of tubulin polymerization.
Experiment [3] can be described thus: Displacement of [3H]colchicine from tubulin. In general terms: Displacement assays read how much labelled ligand stays bound in the presence of the test substance.
The subject of experiment [4] is Leukemia cell. Description: Increase in phospho-Histone H3-ser10 level in human leukemic cells by flow cytometry. It is filed as functional, cell-based.
The subject of experiment [5] is Leukemia cell. In words: Induction of apoptosis in human leukemic cells. Type of experiment: functional, cell-based.
A short description of experiment [6]: Displacement of labeled vinblastine from tubulin.
Experiment [7] can be described thus: Cell cycle arrest in human leukemic cells assessed as blockage in G2/M phase by high content cellular analysis. It is filed as functional, cell-based. The note with it: Leukemia cell.

Calls of active or inactive are those of the source. The rule behind the calls is not given here.

For the compound `C=CCNc1cc(-n2c3c(c4ccccc42)C(=O)CCC3)ccc1C(N)=O`, in experiment [1], the Activity was found to be 0.99 µM.
For `NC(=O)c1ccc(-n2c3c(c4ccccc42)C(=O)CCC3)c(C(F)(F)F)c1`, the Activity in experiment [1] is 0.24 µM.
As for `COc1cc(-n2c3c(c4ccccc42)C(=O)CCC3)ccc1C(N)=O`, the Activity in experiment [1] is above 10 µM.
For the compound `COc1cc2c(c(OC)c1OC)-c1ccc(OC)c(=O)cc1[C@@H](NC(C)=O)CC2`, the Activity in [1] was 0.043 µM.
Consider `CC(=O)c1cn(-c2ccc(C(N)=O)cc2Cl)c2cc(Cl)ccc12`, for which the Activity in the experiment on MCF7 is 1.2 nM; in the experiment on SW-620, 6.5 nM; in experiment [1] it was 0.21 µM; in the experiment on PC-3, 2.2 nM; with K562 it was 0.085 nM; in the experiment with HT-29 it was 9.3 nM.
As for `O=C(O)c1ccc(-n2c3c(c4ccccc42)C(=O)CCC3)c(Br)c1`, the Activity in experiment [1] was above 10 µM.
For the compound `COc1cc(-n2cc(C(C)=O)c3ccccc32)ccc1C(N)=O`, in experiment [1], the Activity worked out at 0.1 µM.
On to `NC(=O)c1ccc(-n2c3c(c4ccccc42)C(=O)CCC3)cc1`, for which the Activity in the experiment on MCF7 was 2300 nM; in the experiment on SW-620, 1200 nM; in experiment [1], above 10 µM; in the experiment on PC-3, 7000 nM; in the experiment on K562 it was 2000 nM; in the experiment on HT-29, 4500 nM.
Turning to `CC(=O)Nc1ccc(-n2c3c(c4ccccc42)C(=O)CCC3)c(Cl)c1`, the Activity in experiment [1] was determined as 0.41 µM.
For the compound `N#Cc1ccc(-n2c3c(c4ccccc42)C(=O)CCC3)c(C(F)(F)F)c1`, in experiment [1], the Activity is above 10 µM.
On the same count and under the same terms, to `CC(C)C(=O)c1cn(-c2ccc(C(N)=O)cc2Cl)c2ccccc12` belongs 5 µM.
For the compound `Cc1cc(C(N)=O)ccc1-n1c2c(c3ccccc31)C(=O)CCC2`, the Activity in [1] amounted to 0.96 µM.
As for `NC(=O)c1ccc(-n2c3c(c4ccccc42)C(=O)CCC3)c(-c2ccccc2)c1`, the Activity in [1] is above 10 µM.
For the compound `COc1cc(C(N)=O)ccc1-n1c2c(c3ccccc31)C(=O)CCC2`, in [1], the Activity stood at 0.42 µM.
For the compound `NC(=O)c1ccc(-n2c3c(c4ccccc42)C(=O)CCC3)c(Br)c1`, the Activity in experiment [1] stood at 0.15 µM.
Same read-out and setting: with `NC(=O)c1ccc(-n2c3c(c4ccccc42)C(=O)CCC3)cc1Br` the figure was above 10 µM.
The term IC50 denotes the concentration at which inhibition is half-maximal. High values mean weaker potency in that assay, low ones greater potency in that assay. Take `NC(=O)Nc1ccc(-n2c3c(c4ccccc42)C(=O)CCC3)c(Cl)c1`: the Activity came to 0.87 nM in the experiment on MCF7; 15 nM in the experiment on SW-620; 0.12 µM in experiment [1]; 790 nM in the experiment on PC-3; 5.5 nM in the experiment with K562; 3.2 nM in the experiment on HT-29. Also, the figures for the IC50 in experiment [2] and in [3] were 1640 nM and 1610 nM, respectively. Moreover, the outcome (in the experiment on Leukemia cell [4]; in the experiment on Leukemia cell [5]; in experiment [7]) was Active. The outcome in [6] was inactive.
For `COc1cc(C(N)=O)ccc1-n1cc(C(C)=O)c2ccccc21`, the Activity in experiment [1] was determined as 0.17 µM.
For the compound `N=C(NO)c1ccc(-n2c3c(c4ccccc42)C(=O)CCC3)c(Br)c1`, the Activity in experiment [1] is 2 µM.
On the same count and under the same terms, to `CC(=O)c1cn(-c2ccc(C(N)=O)cc2Cl)c2ccccc12` belongs 0.14 µM.
Turning to `NC(=O)c1ccc(-n2c3c(c4ccccc42)C(=O)CCC3)c(N)c1`, in [1], the Activity came out at 10 µM.
As for `NC(=O)c1ccc(-n2c3c(c4ccccc42)C(=O)CCC3)c(Cl)c1`, the Activity in the experiment on MCF7 worked out at 85 nM; with SW-620, 94 nM; in experiment [1], 0.42 µM; with PC-3 it was 140 nM; in the experiment on K562, 210 nM; with HT-29, 300 nM.
Regarding `NC(=O)c1ccc(-n2c3c(c4ccccc42)C(=O)CCC3)cc1NCc1ccccc1`, the Activity in [1] was determined as 6.2 µM.
In [2], `CC[C@]1(O)C[C@@H]2CN(CCc3c([nH]c4ccccc34)[C@@](C(=O)OC)(c3cc4c(cc3OC)N(C)[C@H]3[C@@](O)(C(=O)OC)[C@H](OC(C)=O)[C@]5(CC)C=CCN6CC[C@]43[C@@H]65)C2)C1` [VINBLASTINE] had an IC50 of 1150 nM.
For the compound `CN[C@H]1CCc2cc(OC)c(OC)c(OC)c2-c2ccc(OC)c(=O)cc21` [DEMECOLCINE], the Activity in the experiment on MCF7 worked out at 7.8 nM; in the experiment with SW-620, 31 nM; with PC-3, 31 nM; with K562, 16 nM; with HT-29, 25 nM. The compound also showed a half-maximal inhibitory concentration (IC50) in [3] of 3580 nM.
In the case of `NC(=O)c1ccc(-n2c3c(c4ccccc42)C(=O)CCC3)c(F)c1`, in experiment [1], the Activity came out at 5 µM.
